Results: ChEMBL document CHEMBL1201862, “PubChem BioAssay data set” (2004)
Calls of active or inactive are those of the source.

Tests used:
Estrogen receptor beta [1] = molecular target: T1, Estrogen receptor beta (Homo sapiens, UniProt Q92731);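 further: recombinant ER-beta bound to coactivator SRC1 peptide in presence of estradiol agonist; inhibitors block coactivator peptide binding and lower the FRET signal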
Estrogen receptor beta [2] = molecular target: T1, Estrogen receptor beta; experiment: blockers of SRC-3 recruitment to ERβ – biochemical, ELISA, streptavidin-HRP readout, orthogonal assay, confirmation (AID 1060)
NADPH oxidase 1 = NADPH oxidase 1 (Homo sapiens, UniProt Q9Y5S8); format: functional, cell-based;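 further: Cell-based assay with luminescence read-out, IC50 derived from inhibitor dose-response curves; intracellular ROS from endogenous NOX1 in intact HT29 colon cancer cells; potency of inhibitors that lower the ROS luminescence signal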
INS1 = experiment: INS-1E survival protection against cytokine death – cell-based, luminescence, retest, dose response (AID 449756); format: functional; conditions: Rattus norvegicus;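 further: cell death triggered by IL-1 beta plus TNF-alpha plus IFN-gamma mixture; protective hits raise ATP signal compared with cytokine alone wells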
[3] = molecular target: T2, Small ubiquitin-related modifier 1 (Homo sapiens, UniProt P63165); experiment: SUMO1 protein interaction blockers, potency – biochemical, fluorescence polarization, uHTS hits, dose response (AID 624382); format: functional; conditions: read-out: IC50_Mean
T2 sequence (P63165 whole entry): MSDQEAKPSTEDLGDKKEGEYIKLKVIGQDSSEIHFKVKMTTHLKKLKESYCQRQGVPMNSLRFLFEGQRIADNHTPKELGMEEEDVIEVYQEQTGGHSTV

[4] = molecular target: T2, Small ubiquitin-related modifier 1; experiment: SUMO1 protein-protein binding blockers, potency – biochemical, FRET, dose response (AID 624383); format: functional; conditions: read-out: IC50_Mean
[5] = molecular target: T3, Bifunctional protein GlmU (Mycobacterium tuberculosis, UniProt P9WMN3); experiment: Inhibitors of Mycobacterial Glucosamine-1-phosphate acetyl transferase (GlmU). Secondary screen.; parameters: species or system Mycobacterium tuberculosis H37Rv
T3 sequence (P9WMN3 whole entry): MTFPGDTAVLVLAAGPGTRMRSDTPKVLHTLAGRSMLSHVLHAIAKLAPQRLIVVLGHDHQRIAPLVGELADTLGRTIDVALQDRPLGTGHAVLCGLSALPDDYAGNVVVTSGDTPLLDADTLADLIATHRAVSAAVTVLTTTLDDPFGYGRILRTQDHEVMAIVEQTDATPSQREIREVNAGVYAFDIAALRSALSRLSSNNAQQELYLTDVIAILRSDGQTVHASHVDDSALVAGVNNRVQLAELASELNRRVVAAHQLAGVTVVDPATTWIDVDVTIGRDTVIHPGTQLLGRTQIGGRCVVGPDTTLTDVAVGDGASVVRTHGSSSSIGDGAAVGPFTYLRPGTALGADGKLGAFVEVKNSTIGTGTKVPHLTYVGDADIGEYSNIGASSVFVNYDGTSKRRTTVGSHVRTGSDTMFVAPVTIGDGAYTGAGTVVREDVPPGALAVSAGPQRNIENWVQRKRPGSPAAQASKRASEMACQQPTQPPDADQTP

[6] = molecular target: T4, Induced myeloid leukemia cell differentiation protein Mcl-1 (Homo sapiens, UniProt Q07820); experiment: blockers of MCL1 binding to BIM peptide – biochemical, fluorescence polarization, BIM-BH3 peptide, 1536-well, dose response (AID 2217)
T4 sequence (Q07820 whole entry): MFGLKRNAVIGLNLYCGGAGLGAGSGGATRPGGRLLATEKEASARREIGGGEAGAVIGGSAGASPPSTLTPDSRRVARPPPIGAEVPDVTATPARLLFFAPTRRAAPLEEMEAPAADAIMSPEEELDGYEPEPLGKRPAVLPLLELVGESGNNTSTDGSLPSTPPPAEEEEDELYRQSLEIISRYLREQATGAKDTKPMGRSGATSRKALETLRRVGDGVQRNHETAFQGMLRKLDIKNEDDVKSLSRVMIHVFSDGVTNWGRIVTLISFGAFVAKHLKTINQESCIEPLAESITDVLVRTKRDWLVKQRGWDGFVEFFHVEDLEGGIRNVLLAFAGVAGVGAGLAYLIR

[7] = molecular target: T4, Induced myeloid leukemia cell differentiation protein Mcl-1; format: functional
SUMO-activating enzyme [8] = molecular target: T5, SUMO-activating enzyme (Homo sapiens, UniProt Q9UBT2); experiment: blockers of SAE1/SAE2–UBC9 SUMO transfer – biochemical, HTRF, uHTS, primary screen (AID 2006); format: protein-complex assay
T5 sequence (Q9UBE0 whole entry): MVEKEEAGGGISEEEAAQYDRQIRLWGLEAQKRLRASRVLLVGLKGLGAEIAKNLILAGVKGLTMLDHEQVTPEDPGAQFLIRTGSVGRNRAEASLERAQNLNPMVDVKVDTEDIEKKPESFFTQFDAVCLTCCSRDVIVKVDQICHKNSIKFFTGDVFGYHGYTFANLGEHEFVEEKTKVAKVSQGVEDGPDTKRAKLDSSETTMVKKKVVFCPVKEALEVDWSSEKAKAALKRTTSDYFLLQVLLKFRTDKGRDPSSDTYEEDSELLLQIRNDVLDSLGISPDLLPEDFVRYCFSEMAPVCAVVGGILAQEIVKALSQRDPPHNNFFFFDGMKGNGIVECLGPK
T5 sequence (Q9UBT2 whole entry): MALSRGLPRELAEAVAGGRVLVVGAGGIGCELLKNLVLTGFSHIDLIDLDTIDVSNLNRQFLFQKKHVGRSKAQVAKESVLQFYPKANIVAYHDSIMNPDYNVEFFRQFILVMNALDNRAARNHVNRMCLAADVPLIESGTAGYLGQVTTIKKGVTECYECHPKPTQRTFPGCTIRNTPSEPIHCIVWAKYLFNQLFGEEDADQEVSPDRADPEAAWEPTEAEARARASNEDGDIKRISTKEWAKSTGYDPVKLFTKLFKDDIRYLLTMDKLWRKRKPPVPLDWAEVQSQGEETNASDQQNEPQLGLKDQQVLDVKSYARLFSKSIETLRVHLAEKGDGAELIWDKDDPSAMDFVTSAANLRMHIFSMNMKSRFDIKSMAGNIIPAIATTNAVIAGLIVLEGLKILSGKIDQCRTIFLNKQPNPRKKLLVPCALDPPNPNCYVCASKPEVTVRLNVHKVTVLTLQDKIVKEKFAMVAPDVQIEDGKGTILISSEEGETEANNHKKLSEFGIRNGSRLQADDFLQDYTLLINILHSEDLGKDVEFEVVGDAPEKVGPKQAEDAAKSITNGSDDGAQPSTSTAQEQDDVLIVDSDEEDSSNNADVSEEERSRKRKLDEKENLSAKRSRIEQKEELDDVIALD

Bcl-2-like protein 1 = Bcl-2-like protein 1 (Homo sapiens, UniProt Q07817); experiment: blockers of BCLXL peptide binding – biochemical, fluorescence polarization, 1536-well, selectivity assay for MCL1 inhibitor project, dose response (AID 2218)
[9] = molecular target: Ras and Rab interactor 1/Tyrosine-protein kinase ABL1 (Homo sapiens, UniProt P00519+Q13671); format: functional;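 further: biochemical TR-FRET dose-response test measuring inhibition of binding between Rin1 and Abl proteins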
SUMO-activating enzyme [10] = molecular target: T5, SUMO-activating enzyme; experiment: blockers of UBC9-mediated SUMO conjugation – biochemical, AlphaScreen, SUMOylation inhibitor project, confirmation (AID 2018); format: functional
[11] = molecular target: T6, Tyrosine-protein phosphatase non-receptor type 7 (Homo sapiens, UniProt P35236); experiment: HePTP tyrosine phosphatase activity blockers – biochemical, absorbance, leukemia target, primary screen (AID 521); format: functional
T6 sequence (P35236 whole entry): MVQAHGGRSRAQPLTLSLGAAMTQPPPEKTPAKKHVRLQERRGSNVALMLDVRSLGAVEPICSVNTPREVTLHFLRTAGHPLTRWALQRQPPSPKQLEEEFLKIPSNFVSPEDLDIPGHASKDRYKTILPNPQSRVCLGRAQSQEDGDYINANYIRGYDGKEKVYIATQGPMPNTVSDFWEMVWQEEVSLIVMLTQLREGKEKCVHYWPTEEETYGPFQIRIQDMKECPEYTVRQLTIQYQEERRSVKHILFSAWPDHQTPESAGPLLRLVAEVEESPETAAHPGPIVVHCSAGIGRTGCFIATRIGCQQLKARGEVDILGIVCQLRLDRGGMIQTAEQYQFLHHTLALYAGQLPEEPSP

Mucolipin-3 = Mucolipin-3 (Homo sapiens, UniProt Q8TDD5); experiment: Dose response cell-based high-throughput screening assay for agonists of the transient receptor potential channel ML3 (TRPML3). [Related pubchem assays: 1526, 1424, 1448 ]; format: functional
Chain of Mucolipin-3 (Q8TDD5 whole entry): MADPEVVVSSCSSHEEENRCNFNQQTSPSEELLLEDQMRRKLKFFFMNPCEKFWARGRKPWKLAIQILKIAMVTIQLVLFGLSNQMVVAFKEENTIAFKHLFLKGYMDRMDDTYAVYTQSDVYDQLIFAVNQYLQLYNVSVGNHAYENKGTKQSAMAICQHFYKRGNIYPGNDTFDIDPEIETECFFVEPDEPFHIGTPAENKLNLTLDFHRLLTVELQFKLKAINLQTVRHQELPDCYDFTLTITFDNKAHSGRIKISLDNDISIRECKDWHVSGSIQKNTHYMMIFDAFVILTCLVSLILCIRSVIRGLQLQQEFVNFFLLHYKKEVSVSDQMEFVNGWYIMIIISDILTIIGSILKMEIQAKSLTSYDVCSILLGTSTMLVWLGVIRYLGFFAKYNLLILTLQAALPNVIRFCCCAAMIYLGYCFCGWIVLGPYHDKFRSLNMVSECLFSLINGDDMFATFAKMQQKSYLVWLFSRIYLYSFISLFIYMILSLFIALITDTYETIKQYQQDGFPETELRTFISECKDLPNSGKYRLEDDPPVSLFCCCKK

Ion channel NompC = Ion channel NompC (Danio rerio, UniProt Q7T1G6); experiment: Fluorescence counterscreen assay for TRPML3 agonists: dose response cell-based high-throughput screening assay to identify agonists of the transient receptor potential channel N1 (TRPN1). [Related pubchem assays: 1526, 1424, 1448 ]; format: functional
Chain of Ion channel NompC (Q7T1G6 whole entry): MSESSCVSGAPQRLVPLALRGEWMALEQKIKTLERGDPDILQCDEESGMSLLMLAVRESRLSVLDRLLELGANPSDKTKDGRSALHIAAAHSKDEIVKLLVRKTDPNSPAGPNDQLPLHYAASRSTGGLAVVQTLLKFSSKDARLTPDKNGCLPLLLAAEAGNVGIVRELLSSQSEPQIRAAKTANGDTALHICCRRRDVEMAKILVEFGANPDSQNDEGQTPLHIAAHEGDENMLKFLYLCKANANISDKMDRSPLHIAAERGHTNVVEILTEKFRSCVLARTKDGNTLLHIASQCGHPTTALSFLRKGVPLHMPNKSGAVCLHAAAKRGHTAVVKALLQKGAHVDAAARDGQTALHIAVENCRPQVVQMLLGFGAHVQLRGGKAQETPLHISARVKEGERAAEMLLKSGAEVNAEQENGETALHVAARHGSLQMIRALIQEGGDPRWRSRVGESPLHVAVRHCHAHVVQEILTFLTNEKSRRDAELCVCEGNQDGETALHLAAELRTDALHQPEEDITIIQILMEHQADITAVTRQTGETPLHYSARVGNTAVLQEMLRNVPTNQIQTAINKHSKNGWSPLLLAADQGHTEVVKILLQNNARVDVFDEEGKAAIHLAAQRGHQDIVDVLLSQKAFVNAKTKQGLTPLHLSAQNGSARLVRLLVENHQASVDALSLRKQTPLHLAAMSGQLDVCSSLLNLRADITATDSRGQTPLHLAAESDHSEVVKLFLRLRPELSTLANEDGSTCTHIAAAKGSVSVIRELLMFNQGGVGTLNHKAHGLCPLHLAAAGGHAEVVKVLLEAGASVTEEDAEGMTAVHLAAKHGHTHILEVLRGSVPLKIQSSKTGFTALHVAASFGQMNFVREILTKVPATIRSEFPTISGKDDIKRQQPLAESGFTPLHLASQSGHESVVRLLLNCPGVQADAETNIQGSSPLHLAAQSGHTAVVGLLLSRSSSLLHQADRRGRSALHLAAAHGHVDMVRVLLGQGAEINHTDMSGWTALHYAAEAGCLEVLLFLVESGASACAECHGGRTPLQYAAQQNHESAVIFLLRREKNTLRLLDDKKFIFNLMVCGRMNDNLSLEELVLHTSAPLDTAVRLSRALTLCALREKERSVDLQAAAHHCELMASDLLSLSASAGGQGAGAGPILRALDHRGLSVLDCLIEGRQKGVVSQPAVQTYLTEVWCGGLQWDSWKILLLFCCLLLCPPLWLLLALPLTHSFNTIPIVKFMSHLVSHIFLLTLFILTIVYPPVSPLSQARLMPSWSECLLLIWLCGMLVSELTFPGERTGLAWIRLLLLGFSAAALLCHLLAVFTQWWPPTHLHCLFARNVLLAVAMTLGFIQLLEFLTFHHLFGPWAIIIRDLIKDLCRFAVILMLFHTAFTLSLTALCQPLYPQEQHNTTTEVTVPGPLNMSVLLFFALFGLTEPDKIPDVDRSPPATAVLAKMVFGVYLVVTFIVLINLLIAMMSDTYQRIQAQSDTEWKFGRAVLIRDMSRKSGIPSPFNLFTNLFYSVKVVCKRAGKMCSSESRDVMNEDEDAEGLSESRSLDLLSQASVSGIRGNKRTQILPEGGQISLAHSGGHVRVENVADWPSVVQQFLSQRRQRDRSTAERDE

[12] = molecular target: T7, Aryl hydrocarbon receptor (Homo sapiens, UniProt P35869); experiment: Luminescence-based cell-based high throughput dose response assay for activators of the Aryl Hydrocarbon Receptor (AHR). [Related pubchem assays: 2796 (Primary screen (AHR activators in singlicate)), 2845 (Confirmation screen (AHR activators in triplicate)), 434939 (Counterscreen (PXR activators in triplicate)), 2804 (Summary (AHR activators))]; format: ADME
T7 sequence (P35869 whole entry): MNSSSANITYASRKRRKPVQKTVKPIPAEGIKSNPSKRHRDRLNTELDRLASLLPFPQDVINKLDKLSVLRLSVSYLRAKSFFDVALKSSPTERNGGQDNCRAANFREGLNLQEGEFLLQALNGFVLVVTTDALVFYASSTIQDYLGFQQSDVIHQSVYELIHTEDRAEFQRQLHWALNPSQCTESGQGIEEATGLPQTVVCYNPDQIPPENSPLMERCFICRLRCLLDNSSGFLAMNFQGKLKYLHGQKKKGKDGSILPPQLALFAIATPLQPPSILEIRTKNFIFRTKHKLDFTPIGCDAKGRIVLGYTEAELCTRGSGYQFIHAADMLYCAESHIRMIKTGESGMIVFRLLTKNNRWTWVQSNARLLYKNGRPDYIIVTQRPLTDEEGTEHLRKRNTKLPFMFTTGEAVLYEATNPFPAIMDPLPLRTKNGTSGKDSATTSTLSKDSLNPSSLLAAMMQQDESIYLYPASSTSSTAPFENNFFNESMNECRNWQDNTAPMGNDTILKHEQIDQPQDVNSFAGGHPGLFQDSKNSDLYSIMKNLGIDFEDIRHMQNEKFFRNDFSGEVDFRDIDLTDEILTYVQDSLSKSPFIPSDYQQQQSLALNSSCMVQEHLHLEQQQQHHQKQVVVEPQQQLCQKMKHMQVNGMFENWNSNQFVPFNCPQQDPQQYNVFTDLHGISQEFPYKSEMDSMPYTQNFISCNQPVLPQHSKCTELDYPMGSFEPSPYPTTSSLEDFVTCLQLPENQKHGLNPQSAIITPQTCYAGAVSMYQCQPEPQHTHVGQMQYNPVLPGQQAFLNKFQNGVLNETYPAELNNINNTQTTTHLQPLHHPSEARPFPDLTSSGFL

[13] = molecular target: Acyl-homoserine lactone acylase PvdQ (Pseudomonas aeruginosa (strain LESB58), UniProt Q9I194); experiment: PvdQ acylase enzyme activity blockers – biochemical, fluorescence, plate reader and imaging, cherry-picks, dose response (AID 493231)
Chain of Acyl-homoserine lactone acylase PvdQ (Q9I194 24-193 limits assumed): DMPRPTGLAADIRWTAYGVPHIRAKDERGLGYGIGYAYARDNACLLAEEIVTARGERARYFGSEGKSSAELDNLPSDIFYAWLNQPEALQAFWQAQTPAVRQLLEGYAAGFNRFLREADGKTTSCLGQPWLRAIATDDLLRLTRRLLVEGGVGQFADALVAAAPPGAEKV
Chain of Acyl-homoserine lactone acylase PvdQ (Q9I194 217-762 limits assumed): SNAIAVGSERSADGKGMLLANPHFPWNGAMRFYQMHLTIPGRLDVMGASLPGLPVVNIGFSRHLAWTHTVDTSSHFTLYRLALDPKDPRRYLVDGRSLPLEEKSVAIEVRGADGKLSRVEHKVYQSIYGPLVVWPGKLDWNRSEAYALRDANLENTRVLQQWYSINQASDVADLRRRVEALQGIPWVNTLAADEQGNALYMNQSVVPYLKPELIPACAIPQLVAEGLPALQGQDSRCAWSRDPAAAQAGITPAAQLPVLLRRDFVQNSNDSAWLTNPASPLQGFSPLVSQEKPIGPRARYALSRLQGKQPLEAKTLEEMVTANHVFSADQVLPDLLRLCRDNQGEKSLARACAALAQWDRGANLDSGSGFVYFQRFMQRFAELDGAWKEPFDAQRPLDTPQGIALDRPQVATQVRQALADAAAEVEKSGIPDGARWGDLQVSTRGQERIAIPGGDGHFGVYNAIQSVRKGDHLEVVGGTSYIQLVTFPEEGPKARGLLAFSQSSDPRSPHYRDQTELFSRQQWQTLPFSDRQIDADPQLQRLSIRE

Bcl-2-like protein 10 = Bcl-2-like protein 10 (Homo sapiens, UniProt Q9HD36); experiment: Bcl-B/TR3 peptide binding disruption – biochemical, fluorescence polarization, FITC-TR3 peptide, selectivity assay for Bfl-1 inhibitor project, primary screen (AID 748);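 further: fluorescence polarization from a fluorescein-labelled TR3 peptide binding purified Bcl-B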
[14] = molecular target: Eukaryotic translation initiation factor 4E (Mus musculus, UniProt P63073); experiment: blockers of eIF4G binding by eIF4E – biochemical, TR-FRET, dose response (AID 855); format: functional;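 further: potency for disrupting eIF4E binding to eIF4GI seen as loss of FRET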
[15] = molecular target: T8, Dual specificity protein phosphatase 6 (Rattus norvegicus, UniProt Q64346); experiment: inhibition of rat DUSP6 enzyme activity – biochemical, in vitro, primary screen (AID 425)
T8 sequence (Q64346 whole entry): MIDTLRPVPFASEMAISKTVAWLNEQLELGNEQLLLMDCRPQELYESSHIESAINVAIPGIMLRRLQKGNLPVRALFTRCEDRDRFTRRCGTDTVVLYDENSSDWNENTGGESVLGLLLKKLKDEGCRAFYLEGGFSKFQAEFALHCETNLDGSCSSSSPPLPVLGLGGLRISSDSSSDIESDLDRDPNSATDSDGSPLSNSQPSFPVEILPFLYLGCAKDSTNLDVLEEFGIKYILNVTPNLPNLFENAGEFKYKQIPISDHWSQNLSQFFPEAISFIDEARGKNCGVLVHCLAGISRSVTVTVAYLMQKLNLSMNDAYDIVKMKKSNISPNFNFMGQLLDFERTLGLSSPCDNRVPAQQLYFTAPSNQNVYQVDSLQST

[16] = NIH-3T3 fibroblast cytotoxicity, dose response, cytotoxicity control, cell-based, fluorescence, Alamar Blue, secondary assay (AID 2327); format: functional;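 further: NIH-3T3 mouse fibroblasts cultured with fluconazole at 8 µg/mL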
[17] = viability loss of HPDE-C7K cells – cell-based, fluorescence, HTS, primary screen (AID 431); format: functional; conditions: Homo sapiens
[18] = fluconazole-exposed Candida albicans growth modulators – fluorescence, retest, confirmation (AID 2467); format: functional, cell-based
[19] = HPDE-C7 pancreatic duct cell viability loss – fluorescence, HTS (AID 430); format: functional, cell-based; conditions: Homo sapiens
[20] = Luminescence Cell-Based Dose Retest to Confirm Inhibitors of Cancer Stem Cells. [Related pubchem assays (depositor defined):AID2717, AID2721]; format: functional; conditions: Homo sapiens
[21] = molecular target: T9, Corticotropin-releasing factor receptor 2/Corticotropin-releasing factor-binding protein (Homo sapiens, UniProt P24387+Q13324); experiment: Dose Response confirmation of uHTS hits for small molecule antagonists of the CRF-binding protein and CRF-R2 receptor complex.; format: functional; conditions: read-out: IC50_Mean
T9 sequence (Q13324 whole entry): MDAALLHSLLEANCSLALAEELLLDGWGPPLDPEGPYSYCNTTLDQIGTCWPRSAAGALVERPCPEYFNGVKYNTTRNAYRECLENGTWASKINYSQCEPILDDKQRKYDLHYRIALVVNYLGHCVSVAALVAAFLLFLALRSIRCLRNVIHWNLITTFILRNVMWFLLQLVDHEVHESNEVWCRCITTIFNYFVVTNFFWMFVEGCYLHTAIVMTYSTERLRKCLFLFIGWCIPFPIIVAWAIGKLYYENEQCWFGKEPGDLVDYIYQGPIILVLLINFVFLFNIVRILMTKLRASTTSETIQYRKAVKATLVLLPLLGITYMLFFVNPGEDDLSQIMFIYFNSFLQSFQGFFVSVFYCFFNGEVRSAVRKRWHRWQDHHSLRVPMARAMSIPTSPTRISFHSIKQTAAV
T9 sequence (P24387 whole entry): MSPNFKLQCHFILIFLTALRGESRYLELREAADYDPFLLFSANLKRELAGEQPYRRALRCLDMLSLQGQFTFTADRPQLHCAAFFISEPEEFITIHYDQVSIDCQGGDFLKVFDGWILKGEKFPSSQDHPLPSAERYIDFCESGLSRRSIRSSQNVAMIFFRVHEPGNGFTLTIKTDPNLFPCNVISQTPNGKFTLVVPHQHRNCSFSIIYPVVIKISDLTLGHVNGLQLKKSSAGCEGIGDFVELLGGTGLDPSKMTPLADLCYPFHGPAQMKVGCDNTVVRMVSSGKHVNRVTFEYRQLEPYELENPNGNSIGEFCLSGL

[22] = molecular target: T9, Corticotropin-releasing factor receptor 2/Corticotropin-releasing factor-binding protein; experiment: activators of CRF receptor 2 with binding protein – uHTS hits, confirmation (AID 602473); format: functional; conditions: read-out: EC50_Mean

T1 sequence (Q92731 whole entry): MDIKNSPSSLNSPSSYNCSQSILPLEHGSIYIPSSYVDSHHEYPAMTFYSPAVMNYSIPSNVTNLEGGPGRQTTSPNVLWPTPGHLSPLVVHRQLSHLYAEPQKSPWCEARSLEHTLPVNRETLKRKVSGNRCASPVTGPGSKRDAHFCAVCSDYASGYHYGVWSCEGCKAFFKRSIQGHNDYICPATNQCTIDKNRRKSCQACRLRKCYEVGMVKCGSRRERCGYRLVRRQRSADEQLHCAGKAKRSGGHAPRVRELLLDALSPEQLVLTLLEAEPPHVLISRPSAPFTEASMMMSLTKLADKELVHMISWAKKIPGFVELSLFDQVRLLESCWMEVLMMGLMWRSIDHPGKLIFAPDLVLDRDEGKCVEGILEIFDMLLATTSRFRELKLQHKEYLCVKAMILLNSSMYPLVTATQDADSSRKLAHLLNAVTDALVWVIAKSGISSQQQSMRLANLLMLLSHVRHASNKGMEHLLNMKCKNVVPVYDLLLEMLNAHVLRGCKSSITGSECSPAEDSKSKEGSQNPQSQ

Compound: COc1cc(CCC(=O)OCC(=O)Nc2ncc(Cl)cc2Cl)cc(OC)c1OC
- IC50 (Estrogen receptor beta [1]): 9.58 µM (active)
- IC50 (Estrogen receptor beta [2]): 102 µM (not active)

Compound: COc1cc([N+](=O)[O-])ccc1NC(=O)Nc1ccc(Oc2ccccc2)cc1
- IC50 (NADPH oxidase 1): > 17 µM (not active)

Compound: COC(=O)c1cc(O)cc(OC)c1Oc1cc(C)cc(O)c1C(=O)O [ASTERRIC ACID]
- AC50 (INS1): 8.13 µM (active)
- IC50 [3]: > 66.6 µM (inactive)
- IC50 [4]: 8.12 µM (active)
- IC50 [5]: 82.7 µM (active)
- IC50 [6]: 5.48 µM (active)
- IC50 [7]: 2.42 µM (not active)
- IC50 (SUMO-activating enzyme [8]): 17.7 µM (active)
- IC50 (Bcl-2-like protein 1): 54.2 µM (not active)
- IC50 [9]: 20.7 µM (inactive)
- IC50 (SUMO-activating enzyme [10]): 7.42 µM (active)

Compound: COn1cnnc1-c1ccccc1
- IC50 [11]: > 100 µM (not active)

Compound: O=S(=O)(Oc1ccccc1N1CCCCC1)c1ccccc1
- EC50 (Mucolipin-3): > 29.9 µM (not active)
- EC50 (Ion channel NompC): > 29.9 µM (not active)

Compound: COc1ccc(C(=O)Nc2cc(OC)c(NC(=O)c3ccco3)cc2OC)cc1
- EC50 [12]: 1.76 µM (active)

Compound: COc1ccc(C(C#N)c2ccc(Cl)nn2)cc1 (stereo not given)
- AC50 [13]: 6.48 µM (active)

Compound: N#CC(c1ccc(Cl)nn1)c1c(F)cccc1Cl (stereo not given)
- AC50 [13]: 4.04 µM (active)

Compound: O=C(OC1CCCCC1)c1ccc2c(c1)C1C=CCC1C(C(=O)O)N2 (stereo not given)
- IC50 (Bcl-2-like protein 10): 2 µM (active)
- IC50 [14]: 5.02 µM (active)
- IC50 [11]: 0.84 µM (active)
- IC50 [15]: 1.83 µM (active)

Compound: Cc1ccc(S(=O)(=O)c2c(C)nn(C(C)(C)C)c2OC(=O)C(C)(C)C)cc1
- EC50 (Mucolipin-3): 5.15 µM (active)
- EC50 (Ion channel NompC): > 29.9 µM (not active)

Compound: Cc1ccc(S(=O)(=O)c2c(C)nn(C(C)(C)C)c2OC(=O)c2ccc(Br)o2)cc1
- EC50 [16]: > 160 µM (inconclusive)
- EC50 [17]: 4.56 µM (active)
- EC50 [18]: 0.805 µM (active)
- EC50 [19]: 4.41 µM (active)
- AC50 [20]: 1.67 µM (active)

Compound: C=C(NNc1c(F)c(F)nc(F)c1F)c1ccncc1
- IC50 (NADPH oxidase 1): > 17 µM (not active)

Compound: C=C(C)COc1ccc(-c2n[nH]cc2Oc2ccccc2OC)c(O)c1
- IC50 [21]: 1.91 µM (active)
- EC50 [17]: 9.78 µM (active)
- EC50 [22]: > 53 µM (inactive)
- EC50 [19]: 12.3 µM (active)
